According to patent publication US20030134901A1, “Lipoxin compounds and their use in treating cell proliferative disorders” (priority 1993, published 2003):

Tested on: PLD activity in human PMN
Test: PLD activity (PEt formation) in PMN
Type: cell-based
Settings: biphasic concentration dependence
Method: PMN, platelet and RBC isolation from peripheral blood. Human PMN were obtained by the modified Böyum method (Böyum, A. (1968) Scan. J. Clin. Lab. Invest. 21:77) from fresh heparinized blood after venipuncture of healthy normal volunteers. Suspensions in PBS were monitored for cell number and viability by their ability to exclude trypan blue both exceeding 98%. Red blood cells were obtained from 10 ml of heparinized blood after three centrifugations in PBS (2,500 rpm, 10 min at 21° C.). Blood drawn in acidic citrate dextrose (9:1, v/v) was used to isolate platelets as previously described (Serhan, C. N. and Sheppard, K.-A. (1990) J. Clin. Invest. 85:772). PLD activity. Human PMN and HL-60 cells (50×10^6 cells/ml) prepared as above were incubated with ^3H-myristic acid or ^3H-palmitic acid (8 μCi/50×10^6 cells) for 40-60 min at 37° C. in PBS. […] Incubations were carried out at 37° C. (10 ×10^6 cells/ml PBS). […] M. et al. (1989) J. Biol. Chem. 264:17069. At indicated times, incubations were stopped by adding 3.5 ml of ice cold CHCl3/MeOH (2/5, v/v) containing 1-^14C-arachidonic acid (5,000 cpm) used here as internal standard to quantitate extraction recoveries. Samples were extracted using a modified Bligh and Dyer extraction as in (Serhan, C. N. and Sheppard, K. -A. (1990) J. Clin. Invest. 85:772). Organic phases, concentrated in 50 μL of CHCl3/MeOH (8/2, v/v), were spotted onto linear […] TLC plates developed with the organic phase of ethyl acetate[…][…] (110/50/20/100, v/v/v/v) for 50 min ([…]. et al.(1989) J. Biol. Chem. 264:17069). […] Regions corresponding to PA, PEt, and internal standards were scraped and quantified by liquid scintillation counting. […] In these experiments, PA was resolved using ethyl acetate[…][…]) as solvent system ([…]. et al. (1989) Anal. […] Impact of IAP and staurosporine on LXA4-induced PLD activity. PLD activity assays, performed as described (vide supra), were preceded by cell exposure to either IAP or staurosporine. […]

CCCCC[C@H](O)/C=C/C=C\C=C\C=C\[C@@H](O)[C@@H](O)CCCC(=O)O [LXA4, (5S, 6R, 15S)-trihydroxy-7E, 9E, 11Z, 13E-eicosatetraenoic acid]
concentration of second peak of activity, PEt formation: 10^−7 M
